Source: a melting point compilation (Tetko et al.; mined from patent text by program, amines drawn as free bases though some values may be those of a salt)

| melting point [°C] | SMILES |
| --- | --- |
| 89 to 91 | CCOC(=O)c1ccc(N=CN(C)c2ccc(C(=O)OCC)cc2)cc1 |
| 74 to 78 | COC1=NS(=O)(=O)N(C)C(OCCCCc2ccccc2)=N1 |
| 152 to 153 | CCCN1C(=O)C(NC(=O)C(N)Cc2ccccc2)N=C(N2CCN(C)CC2)c2ccccc21 (centres undefined) |
| 67 to 69 | Cc1ccc([N+](=O)[O-])c(O)c1CCC(C)Br (centres undefined) |
| 179 | CC(C)(C)NC(=O)c1ccc(S(=O)(=O)Cl)cc1 |
| 85 to 95 | CC(=O)OCC1OC(n2c(Br)nc3cc(Cl)c(Cl)cc32)C(O)C1O (centres undefined) |
| 180 | O=C(O)C(CCN1C(=O)c2ccccc2C1=O)CS(=O)(=O)c1ccc(-c2ccccc2)cc1 (centres undefined) |
| 210 | COc1ccc(-n2c(CC(=O)O)c(C(=O)O)c3cc(Oc4cccc(C(F)(F)F)c4)ccc32)cc1 |
| 120 | COCCc1nc(-c2ccc(C(F)(F)F)cc2)ncc1COc1ccc(OC(C)(C)C(=O)O)c(C)c1 |
| 152 to 153 | O=C(O)CCCc1ccc(C(Cc2ccccc2)NS(=O)(=O)c2ccc(Cl)cc2)cc1 (centres undefined) |
| 218 to 222 | O=C(O)c1cccc(-c2cccn3c(=O)n(Cc4cccc(C(F)(F)F)c4)nc23)c1 |
| 131 to 135 | CC(=O)SCC(Cc1ccc(-c2ccccc2)cc1)C(=O)N[C@@H](CSCc1ccc(C)cc1)C(=O)O (some centres undefined) |
| 113 | Nc1ccccc1C(=O)NCCCN1CCC(C(=O)c2ccc(F)cc2)CC1 |
| 177 | Cn1c(=O)c2ncn(CCCCCC(=O)O)c2n(C)c1=O |
| 144 to 147 | CCOC(=O)Nc1cc(OC(=O)OC)c(Cl)cc1F |
| 210 to 211 | Cc1cc(Nc2ccccc2C(=O)O)n(C)n1 |
| 225 to 227 | Cc1nc(SCc2ncccc2C(=O)O)sc1CC(=O)O |
| 232 | O=C(O)c1cc2cc(F)c(F)cc2nc1Cl |
| 189 to 191 | COCOc1ccc(-n2c(=O)c3c(CN(C)Cc4ccccc4)c(-c4ccc(NC(=O)NOC)cc4)sc3n(Cc3c(F)cccc3F)c2=O)cc1 |
| 168 | O=C(Nc1cccc2c1C(=O)N(CCN1CCN(c3ccncc3)CC1)C2=O)c1ccc(Cl)s1 |
| 130 to 132 | CCCc1c(OCCCCCCc2cccc(O)c2O)ccc(C(=O)O)c1OC(C)=O |
| 222 to 223 | O=C(NCc1ccc(Cl)cc1)c1cn2c3c(cc(I)cc3c1=O)CC2CO (centres undefined) |
| 166 to 167 | CS(=O)(=O)c1ccc(-c2cnn(-c3ccc(F)cc3)c(=O)c2OCC2CC2)cc1 |

| melting point [°C] | SMILES |
| --- | --- |
| 169 to 171 | COC(=O)c1cc(C(=O)O)nc2cc(Cl)cc(Cl)c12 |
| 84 to 85 | COC(=O)C(NC(C)=O)C(=O)OCCBr (centres undefined) |
| 97 to 100 | O=C(O)CCSC(CCCc1ccccc1)c1ccc(OCc2ccc3ccccc3n2)cc1 (centres undefined) |
| 162 to 163 | Cc1[nH]nc(NC2CCCCC2)c1C(=O)O |
| 167 to 169 | CCN(CC)CCNc1ccc(CNC)c2sc3ccc(O)cc3c(=O)c12 |
| 149 to 150 | Cc1c(SCCCN2CCOCC2)ccnc1CSc1nc2ccccc2[nH]1 |
| 146 to 147 | CCc1ccc2oc(=O)[nH]c2c1 |
| 195 to 196 | CCOC(=O)C(=O)Nc1c([N+](=O)[O-])sc2cc(OC)ccc12 |
| 183 to 185 | CC(C)(C#N)c1ccc2nc(O)nnc2c1 |
| 60 | COc1ccc2nccc(CCC[C@@H]3CCN(CCC(F)c4ccccc4)C[C@@H]3C(=O)O)c2c1 (some centres undefined) |
| 58 to 59 | CCCCCCCCCCCCCCCCCCOC(=O)CCc1cc(C)c(O)c(C(C)(C)C)c1 |
| 164 to 165 | CCCc1nn(-c2ccc(C(F)(F)F)cn2)cc1CCCOc1cc(CCC(=O)O)n(C2CCCCC2)n1 |
| 86 to 87 | CCOC(=O)CC(=O)N1NCCCC1C(=O)OC(C)(C)C (centres undefined) |
| 225 to 226 | CC(=C1SC(=O)NC1=O)c1cccc(OCCOc2c(-c3ccc(F)cc3C)n(C)c3ccccc3c2=O)c1 |
| 87 to 88 | CCCc1nc(Cl)nc(NCCO)n1 |
| 68 | O=C(O)CCCCC=Cc1cccc(Cc2ccccc2)c1 |
| 124 to 125 | CCCN1C(=O)COc2ccc(N3C(=O)C(C)=C(C)C3O)cc21 (centres undefined) |
| 129 | CCOC(=O)c1c(O)c2cc(F)ccc2n(Cc2ccccc2)c1=O |
| 62 to 65 | CCCOc1nc2sc(Cl)cc2c(=O)n1CCC |
| 71 to 73 | CCOC(=O)C=Cc1cc(Cl)cc(Cl)c1 |
| 218 | Cc1c(-c2ccccc2)oc(C(=O)O)cc1=O |
| 56 to 57 | Cc1ncc(C(=O)O)c(C2=NC(C)(C(C)C)C(=O)N2)n1 (centres undefined) |
| 154 to 156 | CCCCc1nn(-c2cc(N)ccc2C(F)(F)F)c(=O)n1Cc1ccc(-c2ccccc2S(=O)(=O)NC(=O)OC(C)(C)C)cc1 |

Second part, the molecule before the results:

| SMILES | melting point [°C] |
| --- | --- |
| COc1cc2c(cc1Cl)C(O)Cc1ccccc1S2 (centres undefined) | 130 to 132 |
| CS(=O)(=O)Nc1cc([N+](=O)[O-])ccc1F | 128 to 129 |
| CN1CCC(=Cc2cc(C(C)(C)C)c(O)c(C(C)(C)C)c2)C1=O | 185 |
| O=C(O)c1ccccc1Sc1ccc([N+](=O)[O-])cc1[N+](=O)[O-] | 179 to 181 |
| N#Cc1ccc(-c2cncc(OC3SCC(O)C(O)C3O)c2)cc1F (centres undefined) | 214 |
| O=C(c1ccoc1)c1ccc(O)c(Cl)c1Cl | 138 to 142 |
| O=C1CN2CCOC2(c2ccccc2F)c2cc(I)ccc2N1CCO (centres undefined) | 160 to 165 |
| CCOC(=O)C1=C(C)Nc2nc(N3CCOCC3)nc(N3CCOCC3)c2C1c1cccc2ccccc12 (centres undefined) | 198 |
| CN(C(=O)Nc1nc(OCC(F)(F)F)cc(OCC(F)(F)F)n1)c1ccc(C(F)(F)F)s1 | 99 to 101 |
| COC(=O)C1=Cc2cc(Br)ccc2N2CCCC2C1 (centres undefined) | 136 to 139 |
| COc1ccc(Oc2ccccc2Cl)cc1C=O | 65 to 66 |
| CC1(C)CCCC2(C)CC(O)CCC12 (centres undefined) | 53 to 54 |
| CNS(=O)(=O)c1ccc(Nc2cc(N3CCCC3)cc(-c3ccc(OC(F)(F)F)cc3)n2)cc1 | 83 to 85 |
| COc1ccc2c(c1)C(=O)c1c-2c(N2CCN(CC3CO3)CC2)nc2ccccc12 (centres undefined) | 138 to 139 |
| CC(C)[C@@H](N)C(=O)NCC(F)(F)F | 43 to 47 |
| COc1ccc(C(=O)Oc2ccccc2)cc1Nc1ccccc1 | 130 to 131 |
| BrCc1ccc(-c2ccc3c(c2)OCO3)cc1 | 78 to 81 |
| CCSc1ccccc1N1CCN([C@@H]2Cc3c(OC)ccc(OC)c3C[C@H]2O)CC1 (relative stereo) | 171 to 173 |
| CCOC(=O)c1c(Cl)nc2cc3c(cc2c1CCl)OCCO3 | > 260 |
| CC(C(=O)NCC(=O)O)C(SC(=O)c1ccccc1)SC(=O)c1ccccc1 (centres undefined) | 113 to 114 |

| SMILES | melting point [°C] |
| --- | --- |
| O=C(NCc1ccc(Cl)cc1)c1cnc2c(I)cc(CN3CCOCC3)cc2c1O | 230 to 233 |
| N#CC12CCN(CC1)CC2Cc1ccccc1 (centres undefined) | 82.5 to 84 |
| C[C@H](COS(C)(=O)=O)NC(=O)OC(C)(C)C | 65 to 68 |
| COc1ccc2[nH]c(SCc3nccc(N4CCOCC4)c3F)nc2c1 | 121 to 123 |
| CC(C)(C)OC(=O)Nc1cc(OC(C)(C)C)c(-c2ccccc2F)cc1N | 130 |
| N#Cc1nc(SCc2cnn(-c3c(Cl)cc(C(F)(F)F)cc3Cl)n2)n(Cc2ccccc2)c1C#N | 132 |
| COC(=O)C(Cc1ccccc1)Oc1ccc2cc(CNC(=O)c3ccc(C4CCCCC4)cc3)ccc2c1Br (centres undefined) | 160 to 161 |
| NC(=O)c1nc(CCl)n(-c2ccc(Cl)cc2C(=O)c2ccccc2)n1 | 128 to 130 |
| CC(Cc1ccc(C(=O)c2ccc(Cl)cc2)cc1)S(=O)(=O)C(F)(F)F (centres undefined) | 107 to 109 |
| O=c1cc(Sc2ccccc2)cc[nH]1 | 202 |
| COc1ccc(-n2nc(Cl)cc2-c2ccc(OCCO)cc2)cn1 | 136 to 138 |
| CCOC(=O)Nc1c(C)c(C)c2c(c1C)CC(C)(C)O2 | 102 to 104 |
| NC(=O)c1ccc2c(c1)S(=O)(=O)c1ccccc1C2=O | 282 to 283 |
| CC(=O)Nc1cc(OC(F)F)c(OC(F)F)cc1[N+](=O)[O-] | 65 to 67 |
| C[C@H](NC(=O)C(SC(=O)c1ccccc1)SC(=O)c1ccccc1)C(=O)O | 161 to 162 |
| CSc1nc(Cl)c(-c2c(F)cc(F)cc2F)c(Cl)n1 | 75 |
| COc1cc([N+](=O)[O-])ccc1F | 69 to 71 |
| CS(=O)(=O)Nc1ccc(NC(=O)CCl)cc1 | 174 to 177 |
| Oc1ncnc2c1c(Nc1cccnc1)nn2Cc1ccccc1 | 150 to 160 |
| COC(=O)Cc1cc2c(s1)NC(=O)C(C)N=C2c1ccccc1Cl (centres undefined) | 185 to 190 |

| SMILES | melting point [°C] |
| --- | --- |
| Cc1cnc(C#Cc2ccccc2)s1 | 82 to 83 |
| O=Cc1cc2cc(F)c(F)cc2nc1Cl | 226 to 229 |
| CC12CCCc3cc(Nc4ccc(C(=O)O)cc4)cc(c31)CCC2 | 232 to 234 |
| CC(C)(C)c1ccc(Cn2ccc3cc(Br)ccc32)cc1 | 108 to 109 |
| Cc1ccc(O)cc1N=C(c1ccccc1)c1ccccc1 | 106 to 108 |
| O=C1CCC(Cc2c[nH]c3ncccc23)N1 (centres undefined) | 160 to 162 |
| OCc1cc2cc(-c3ccccc3)ccc2[nH]1 | 115 to 116 |
| COC(=O)c1cc2c(cc1N)OCCO2 | 73 to 77 |
| COC(=O)C1=C(Nc2ccccc2N)CSC1 | 101 |
| CCOC(=O)c1cnc(CC)nc1NCc1ccc(-c2ccccc2-c2nnnn2C(c2ccccc2)(c2ccccc2)c2ccccc2)cc1 | 134 to 136 |
| Cc1ccccc1-c1cn(C)cc(-c2cccc(C(F)(F)F)c2)c1=O | 144 to 147 |
| NC(=O)C1CCCCc2cc3c(nc21)CCCCC3 (centres undefined) | 179 |
| O=C(c1c[nH]c(=O)[nH]1)c1cccs1 | 339 to 342 |
| CN(C)C(N)=Nc1cc(C(F)(F)F)ccc1N1CCOCC1 | 132 to 135 |
| NCC1CCn2c(cc3ccccc32)C1 (centres undefined) | 85 to 90 |
| CC(O)(C1=CCNCC1)c1ccc(F)cc1 (centres undefined) | 168 |
| C=CCSc1nc(O)ns1 | 84 |
| O=C1NC(=S)NC(=O)C1=Cc1ccc[nH]1 | 280 |
